According to ChEMBL document CHEMBL1201862, “PubChem BioAssay data set” (2004):
The source made the active and inactive calls.

How the values were obtained:
Beta-galactosidase = Beta-galactosidase (Escherichia coli, UniProt Q8VNN2); experiment: beta-galactosidase enzyme inhibitors and activators, dose response, artefact control for CCR6 antagonist project, biochemical, E. coli enzyme, set 3 (AID 504712); format: functional
Protein RecA = biological target: T1, Protein RecA (Mycobacterium tuberculosis, UniProt P9WHJ3); experiment: Fluorescence Cell-Free Homogeneous Dose Retest to Identify Inhibitors of RecA-Intein Splicing Activity. [Related pubchem assays (depositor defined):AID2097, AID2223, AID489010, AID492950]; format: functional
T1 sequence (P9WHJ3 whole entry): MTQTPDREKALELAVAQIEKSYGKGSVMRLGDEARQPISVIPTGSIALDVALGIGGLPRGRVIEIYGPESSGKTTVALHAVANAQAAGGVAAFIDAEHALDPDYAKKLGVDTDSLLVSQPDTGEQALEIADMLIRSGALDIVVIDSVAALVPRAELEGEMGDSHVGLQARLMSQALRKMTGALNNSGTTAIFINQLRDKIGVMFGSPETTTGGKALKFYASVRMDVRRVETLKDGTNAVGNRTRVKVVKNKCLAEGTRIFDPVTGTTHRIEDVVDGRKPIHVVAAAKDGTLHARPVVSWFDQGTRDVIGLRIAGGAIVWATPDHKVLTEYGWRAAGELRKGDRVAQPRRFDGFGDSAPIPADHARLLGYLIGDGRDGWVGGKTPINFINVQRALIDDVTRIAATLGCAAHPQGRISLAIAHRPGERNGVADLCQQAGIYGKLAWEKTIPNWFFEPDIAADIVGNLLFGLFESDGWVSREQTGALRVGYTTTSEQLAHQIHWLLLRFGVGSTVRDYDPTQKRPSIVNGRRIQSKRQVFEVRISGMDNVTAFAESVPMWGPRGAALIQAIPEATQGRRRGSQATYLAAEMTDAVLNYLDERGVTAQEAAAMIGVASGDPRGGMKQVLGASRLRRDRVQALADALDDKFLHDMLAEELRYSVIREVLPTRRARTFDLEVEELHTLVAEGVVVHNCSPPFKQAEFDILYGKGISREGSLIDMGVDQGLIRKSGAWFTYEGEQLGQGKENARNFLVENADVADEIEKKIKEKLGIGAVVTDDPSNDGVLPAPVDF

[1] = biological target: T2, Replicative DNA helicase DnaB (Mycobacterium tuberculosis, UniProt P9WMR3); experiment: DnaB intein splicing inhibitors, dose response, biochemical, cell-free fluorescence (AID 449749); format: functional
T2 sequence (P9WMR3 whole entry): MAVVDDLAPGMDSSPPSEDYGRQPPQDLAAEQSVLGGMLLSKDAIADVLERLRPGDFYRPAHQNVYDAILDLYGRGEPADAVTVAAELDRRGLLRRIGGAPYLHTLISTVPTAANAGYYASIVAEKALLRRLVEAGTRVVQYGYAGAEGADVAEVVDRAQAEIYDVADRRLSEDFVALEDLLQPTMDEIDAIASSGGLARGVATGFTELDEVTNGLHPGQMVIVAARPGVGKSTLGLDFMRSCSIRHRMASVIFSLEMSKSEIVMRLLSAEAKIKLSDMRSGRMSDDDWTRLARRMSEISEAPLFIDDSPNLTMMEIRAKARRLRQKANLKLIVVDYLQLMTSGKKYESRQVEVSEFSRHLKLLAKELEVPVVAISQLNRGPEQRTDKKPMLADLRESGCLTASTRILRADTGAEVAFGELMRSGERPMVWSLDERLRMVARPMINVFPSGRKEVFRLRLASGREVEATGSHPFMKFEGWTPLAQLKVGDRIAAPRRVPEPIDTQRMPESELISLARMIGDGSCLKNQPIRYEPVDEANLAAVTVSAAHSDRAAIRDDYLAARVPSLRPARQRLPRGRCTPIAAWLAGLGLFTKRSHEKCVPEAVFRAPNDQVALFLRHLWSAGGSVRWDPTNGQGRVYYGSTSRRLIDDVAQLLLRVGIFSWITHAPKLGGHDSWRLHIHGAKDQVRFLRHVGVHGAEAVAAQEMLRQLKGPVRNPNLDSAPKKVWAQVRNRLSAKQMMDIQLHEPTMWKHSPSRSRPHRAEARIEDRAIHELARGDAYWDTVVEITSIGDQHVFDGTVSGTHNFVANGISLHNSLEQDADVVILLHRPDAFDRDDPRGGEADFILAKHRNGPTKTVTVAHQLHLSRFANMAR

[2] = cytotoxicity in BJeHLT fibroblasts, dose response, counter-screen for Ras selective lethality project, BJeHLT cells, dry powder (AID 493052); format: functional, cell-based; conditions: Homo sapiens
[3] = viability loss in BJeLR (HRASV12) cells, primary screen, Ras selective lethality project, cell-based, Alamar Blue, dry powder (AID 493045); format: functional
[4] = viability loss in HRASV12 DRD fibroblasts, dose response, cell-based, DRD BJ fibroblasts, dry powder (AID 493049); format: functional
[5] = cytotoxicity in BJeH fibroblasts, dose response, counter-screen for Ras selective lethality project, BJeH cells, dry powder (AID 493054); format: functional, cell-based
[6] = biological target: Eukaryotic translation initiation factor 4H (Homo sapiens, UniProt Q15056); experiment: eIF4H inhibition in translation initiation, SAR follow-up (AID 435011); format: functional
[7] = biological target: Polyadenylate-binding protein 1 (Homo sapiens, UniProt P11940); experiment: PABP inhibition in translation initiation, SAR follow-up (AID 435018); format: functional
Sequence of Polyadenylate-binding protein 1 (P11940 whole entry): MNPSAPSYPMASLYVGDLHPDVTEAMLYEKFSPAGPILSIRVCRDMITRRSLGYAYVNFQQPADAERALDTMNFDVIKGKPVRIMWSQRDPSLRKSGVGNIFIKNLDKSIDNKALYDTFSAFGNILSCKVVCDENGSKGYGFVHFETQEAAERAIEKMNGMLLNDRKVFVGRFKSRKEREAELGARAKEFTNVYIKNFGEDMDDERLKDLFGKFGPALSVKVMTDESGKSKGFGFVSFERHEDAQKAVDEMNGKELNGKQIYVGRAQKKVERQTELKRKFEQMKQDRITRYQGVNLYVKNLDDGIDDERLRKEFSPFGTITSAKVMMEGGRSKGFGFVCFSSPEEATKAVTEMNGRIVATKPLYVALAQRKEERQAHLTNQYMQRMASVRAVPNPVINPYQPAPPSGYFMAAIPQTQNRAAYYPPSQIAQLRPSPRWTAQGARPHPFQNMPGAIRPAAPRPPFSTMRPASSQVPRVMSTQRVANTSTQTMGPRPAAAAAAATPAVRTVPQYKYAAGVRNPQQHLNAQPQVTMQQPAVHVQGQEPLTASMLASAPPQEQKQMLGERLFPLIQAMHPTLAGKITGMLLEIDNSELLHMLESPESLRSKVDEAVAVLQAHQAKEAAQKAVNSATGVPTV

Caspase-3 = biological target: T3, Caspase-3 (Homo sapiens, UniProt P42574); experiment: procaspase-3 activators, dose response, biochemical, absorbance (AID 489014)
T3 sequence (P42574 whole entry): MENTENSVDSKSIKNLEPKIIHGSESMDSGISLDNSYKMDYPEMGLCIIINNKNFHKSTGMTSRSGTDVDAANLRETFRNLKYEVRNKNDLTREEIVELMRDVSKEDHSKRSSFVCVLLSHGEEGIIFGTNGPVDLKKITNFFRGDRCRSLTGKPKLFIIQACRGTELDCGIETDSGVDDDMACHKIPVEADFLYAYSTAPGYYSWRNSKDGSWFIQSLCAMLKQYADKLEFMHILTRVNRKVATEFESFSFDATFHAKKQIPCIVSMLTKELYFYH

[8] = HEp-2 cell cytotoxicity, dose response, cytotoxicity control for RSV inhibitor project, HTS (AID 2410); format: functional; conditions: human respiratory syncytial virus
[9] = growth suppression of beta-catenin-knockout colon cells, dose response, cell-based, HCT116, human colon tumor (AID 1045); format: functional;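 also: HCT116 colon tumor cells with beta catenin knocked out; cells exposed to compound for 60 hours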
INS1 = experiment: beta cell apoptosis inhibitors, cytokine rescue, dose response, luminescence, retest (AID 449756); format: functional, cell-based; conditions: Rattus norvegicus;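 also: cell death triggered by IL-1 beta plus TNF-alpha plus IFN-gamma mixture; protective hits raise ATP signal compared with cytokine alone wells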
Caspase-7 = Caspase-7 (Homo sapiens, UniProt P55210); experiment: procaspase-7 activators, dose response, counter-screen for procaspase-3 activator project, biochemical, absorbance (AID 489013)
Sequence of Caspase-7 (P55210 24-198 limits assumed): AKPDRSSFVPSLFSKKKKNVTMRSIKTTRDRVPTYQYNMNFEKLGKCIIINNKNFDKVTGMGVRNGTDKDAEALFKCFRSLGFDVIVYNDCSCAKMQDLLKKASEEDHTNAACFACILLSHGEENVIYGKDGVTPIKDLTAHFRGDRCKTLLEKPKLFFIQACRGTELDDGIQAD
Sequence of Caspase-7 (P55210 207-303 limits assumed): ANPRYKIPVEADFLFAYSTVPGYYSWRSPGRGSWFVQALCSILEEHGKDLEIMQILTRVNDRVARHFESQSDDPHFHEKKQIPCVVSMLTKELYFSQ

[10] = biological target: T4, Probable nicotinate-nucleotide adenylyltransferase (Staphylococcus aureus (strain N315), UniProt P65502); format: functional, Staphylococcus aureus subsp. aureus N315; conditions: read-out: IC50_Mean;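 as to IC50 Mean: confirmatory dose-response retesting of NadD inhibitor hits first found in an ultra-high-throughput screen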
T4 sequence (P65502 whole entry): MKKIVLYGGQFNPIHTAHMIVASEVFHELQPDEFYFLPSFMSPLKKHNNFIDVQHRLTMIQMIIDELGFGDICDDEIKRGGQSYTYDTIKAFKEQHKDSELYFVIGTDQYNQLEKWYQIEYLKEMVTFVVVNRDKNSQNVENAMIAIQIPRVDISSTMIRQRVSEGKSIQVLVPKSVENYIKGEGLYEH

[11] = biological target: T4, Probable nicotinate-nucleotide adenylyltransferase; format: functional, Staphylococcus aureus subsp. aureus N315
[12] = growth suppression of PTEN-null colon cells, dose response, cell-based, HCT116 PTEN knockout (AID 1047); format: functional;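 also: HCT116 colon tumor cells with PTEN knocked out; cells exposed to compound for 60 hours before readout; potency for loss of cell viability measured by luminescence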

Sequence of Beta-galactosidase (Q8VNN2 whole entry): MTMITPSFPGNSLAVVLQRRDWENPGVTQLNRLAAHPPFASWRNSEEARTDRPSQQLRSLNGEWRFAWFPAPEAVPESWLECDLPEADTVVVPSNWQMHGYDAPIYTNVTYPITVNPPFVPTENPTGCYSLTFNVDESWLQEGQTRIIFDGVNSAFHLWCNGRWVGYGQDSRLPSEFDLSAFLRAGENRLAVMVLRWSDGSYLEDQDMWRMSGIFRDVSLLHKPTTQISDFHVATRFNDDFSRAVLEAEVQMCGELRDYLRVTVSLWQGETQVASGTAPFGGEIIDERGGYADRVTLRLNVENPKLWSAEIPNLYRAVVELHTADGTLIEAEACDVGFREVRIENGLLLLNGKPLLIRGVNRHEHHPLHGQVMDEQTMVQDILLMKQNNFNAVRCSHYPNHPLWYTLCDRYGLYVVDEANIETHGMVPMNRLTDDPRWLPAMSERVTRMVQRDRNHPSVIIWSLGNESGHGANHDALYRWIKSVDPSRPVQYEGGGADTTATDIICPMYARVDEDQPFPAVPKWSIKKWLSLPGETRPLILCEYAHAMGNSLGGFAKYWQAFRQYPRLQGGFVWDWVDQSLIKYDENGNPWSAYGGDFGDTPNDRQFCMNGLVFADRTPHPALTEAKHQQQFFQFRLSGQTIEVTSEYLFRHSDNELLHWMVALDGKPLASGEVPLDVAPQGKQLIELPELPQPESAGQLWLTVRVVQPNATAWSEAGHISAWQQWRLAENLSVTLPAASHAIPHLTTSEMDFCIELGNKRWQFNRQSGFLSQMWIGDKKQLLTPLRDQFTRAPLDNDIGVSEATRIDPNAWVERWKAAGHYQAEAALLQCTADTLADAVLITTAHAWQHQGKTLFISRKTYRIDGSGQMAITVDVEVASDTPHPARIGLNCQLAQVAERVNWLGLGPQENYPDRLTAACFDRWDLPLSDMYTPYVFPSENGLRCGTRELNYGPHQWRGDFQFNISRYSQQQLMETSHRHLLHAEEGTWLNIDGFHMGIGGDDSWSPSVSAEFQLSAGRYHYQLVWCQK

N#Cc1cc([N+](=O)[O-])c(-n2nnc3ccccc32)c([N+](=O)[O-])c1
IC50 (Beta-galactosidase): > 66.6 µM (inactive)
EC50 (Protein RecA): 25.9 µM (active)
AC50 [1]: 7.31 µM (active)

COc1ccc(N(C(=O)CCl)C(C(=O)NCCc2ccccc2)C2CCCCC2)cc1Cl (configuration not stated)
AC50 [2]: 1.18 µM (active)
AC50 [3]: 0.505 µM (active)
AC50 [4]: 0.496 µM (active)
AC50 [5]: 1.48 µM (active)

Cc1ccc(NC(=O)C2CCN(C(=O)c3cccs3)CC2)cc1
IC50 [6]: > 100 µM (inactive)
IC50 [7]: > 100 µM (inactive)

C=CCn1/c(=N/C(=O)c2cc(-c3cccs3)nc3ccccc23)sc2cc(S(N)(=O)=O)ccc21
EC50 (Caspase-3): 3.26 µM (active)
CC50 [8]: 17.2 µM (active)
EC50 [9]: 30.1 µM (active)
AC50 (INS1): 19.3 µM (active)
EC50 (Caspase-7): > 3.16 µM (active)
IC50 [10]: 21.6 µM (active)
IC50 [11]: 11.5 µM (active)
EC50 [12]: 25.3 µM (active)
